Experimental data published in patent US20180136197A1, “CELL-FREE METHODS OF DETECTING BIOACTIVE LIGANDS” (Brigham Young University, priority 2016, published 2018).

B1: RNase inhibitor: murine RNAse inhibitor purchased from New England Biolabs, added to CFPS reactions (protein, UniProt Q91VI7 1-456, looked up)
Ribonuclease inhibitor: MSLDIQCEQLSDARWTELLPLIQQYEVVRLDDCGLTEVRCKDISSAVQANPALTELSLRTNELGDGGVGLVLQGLQNPTCKIQKLSLQNCGLTEAGCGILPGMLRSLSTLRELHLNDNPMGDAGLKLLCEGLQDPQCRLEKLQLEYCNLTATSCEPLASVLRVKADFKELVLSNNDLHEPGVRILCQGLKDSACQLESLKLENCGITAANCKDLCDVVASKASLQELDLSSNKLGNAGIAALCPGLLLPSCKLRTLWLWECDITAEGCKDLCRVLRAKQSLKELSLASNELKDEGARLLCESLLEPGCQLESLWIKTCSLTAASCPYFCSVLTKSRSLLELQMSSNPLGDEGVQELCKALSQPDTVLRELWLGDCDVTNSGCSSLANVLLANRSLRELDLSNNCMGGPGVLQLLESLKQPSCTLQQLVLYDIYWTNEVEEQLRALEEERPSLRIIS

System: E. coli-based CFPS of GFP
Assay: Cell-free protein synthesis (CFPS) of model protein GFP in presence of additives
Assay type: biochemical
Protocol: CFPS reactions took place in a 96-well plate at 37° C. for 2 hours. PANOxSP was used as an energy source (25% reaction volume of the cell extract, 1.2 nM plasmid, 12 to 15 mM magnesium glutamate, 1 mM 1,4-diaminobutane, 1.5 mM Spermidine, 33.3 mM phosphoenolpyruvate, 10 mM ammonium glutamate, 175 mM potassium glutamate, 2.7 mM potassium oxalate, 0.33 mM nicotinamide adenine dinucleotide, 0.27 mM coenzyme A, 1.2 mM ATP, 0.86 mM CTP, 0.86 mM GTP, 0.86 mM UTP, 0.17 mM folinic acid, 2 mM of all canonical amino acids with the exception of glutamic acid^81. Expressed protein was quantified by addition of 5 μM radiolabeled (U-14C) leucine (PerkinElmer, Waltham, Mass.) to the CFPS reaction. Varying concentrations (0 to 200 μM) of ligands were added to the CFPS reaction. In case of human sample testing, 20% and 10% of whole blood and urine (v/v), respectively were added to the CFPS in addition to the EDC ligands.
Initially, we hypothesized that urea is the main component to hinder protein synthesis in urine samples. The urea concentration in human samples is in a range of 0.1 to 0.8 M^88-89 with the average being 0.22 M^90. To understand the effect of urea on CFPS, we synthesized the model protein GFP in the presence of urea at concentrations between 0.001 to 1 M (FIG. 23). […] Error bars represent one standard deviation for n=3. […] Even reactions with 0.5 M urea retained 40% protein synthesis capability.
We next hypothesized that RNase activity hinders protein synthesis in both urine and blood samples^91,92,93. To test this hypothesis, we performed CFPS of GFP in the presence of urine and blood, and added murine RNase inhibitor as shown in FIGS. 24A and 24B. FIGS. 24A and 24B show the effect of RNase inhibitor on CFPS of GFP in the presence of urine (top) and blood (bottom). The lighter bars in both graphs represent the improvements in protein production in the presence of urine or blood with the addition of RNase inhibitor. The error bars represent one standard deviation for n=3. […] For instance, for 20% by volume urine sample, the GFP production yield increased from less than 10% to more than 30%. The improvement was more significant for blood samples, as 10% by volume blood eliminated protein synthesis, but even 45% by volume blood in CFPS containing RNase inhibitor retained 50% protein synthesis yield. […] Adding RNase inhibitors to CFPS reactions facilitates synthesis of sufficient biosensor protein to detect ligands in up to 25% and 45% by volume urine and blood, respectively. These higher volume percentages help to detect lower concentrations of ligands in the samples.

Molecule | effect on CFPS performance (0.1 M urea) | retained protein synthesis capability (0.5 M urea) | GFP production yield (20% by volume urine, with RNase inhibitor (less than 10% without)) | retained protein synthesis yield (45% by volume blood, with RNase inhibitor)
NC(N)=O [urea] | doesn't have a significant effect | 40% |  | 
B1 |  |  | more than 30% | 50%
